{"source": "PubChem BioAssay (NCI)", "test_in_all_cases": "DTP human tumour cell line panel, 48 h", "key": {"786-0 renal": {"system": "786-0 renal"}, "A498 renal": {"system": "A498 renal"}, "A549 NSCLC": {"system": "A549 NSCLC"}, "ACHN renal": {"system": "ACHN renal"}, "BT-549 breast": {"system": "BT-549 breast"}, "CAKI-1 renal": {"system": "CAKI-1 renal"}, "CCRF-CEM leukemia": {"system": "CCRF-CEM leukemia"}, "COLO 205 colon": {"system": "COLO 205 colon"}, "DU-145 prostate": {"system": "DU-145 prostate"}, "EKVX NSCLC": {"system": "EKVX NSCLC"}, "HCC-2998 colon": {"system": "HCC-2998 colon"}, "HCT-116 colon": {"system": "HCT-116 colon"}, "HCT-15 colon": {"system": "HCT-15 colon"}, "HL-60(TB) leukemia": {"system": "HL-60(TB) leukemia"}, "HOP-62 NSCLC": {"system": "HOP-62 NSCLC"}, "HOP-92 NSCLC": {"system": "HOP-92 NSCLC"}, "HS 578T breast": {"system": "HS 578T breast"}, "HT29 colon": {"system": "HT29 colon"}, "IGROV1 ovarian": {"system": "IGROV1 ovarian"}, "K-562 leukemia": {"system": "K-562 leukemia"}, "KM12 colon": {"system": "KM12 colon"}, "LOX IMVI melanoma": {"system": "LOX IMVI melanoma"}, "M14 melanoma": {"system": "M14 melanoma"}, "MALME-3M melanoma": {"system": "MALME-3M melanoma"}, "MCF7 breast": {"system": "MCF7 breast"}, "MDA-MB-231 breast": {"system": "MDA-MB-231 breast"}, "MDA-MB-435": {"system": "MDA-MB-435"}, "MDA-N": {"system": "MDA-N"}, "MOLT-4 leukemia": {"system": "MOLT-4 leukemia"}, "NCI-H226 lung": {"system": "NCI-H226 lung"}, "NCI-H23 lung": {"system": "NCI-H23 lung"}, "NCI-H460 lung": {"system": "NCI-H460 lung"}, "NCI-H522 lung": {"system": "NCI-H522 lung"}, "NCI/ADR-RES ovarian": {"system": "NCI/ADR-RES ovarian"}, "OVCAR-3 ovarian": {"system": "OVCAR-3 ovarian"}, "OVCAR-4 ovarian": {"system": "OVCAR-4 ovarian"}, "OVCAR-5 ovarian": {"system": "OVCAR-5 ovarian"}, "OVCAR-8 ovarian": {"system": "OVCAR-8 ovarian"}, "PC-3 prostate": {"system": "PC-3 prostate"}, "RPMI-8226 leukemia": {"system": "RPMI-8226 leukemia"}, "RXF 393 renal": {"system": "RXF 393 renal"}, "SF-268 CNS": {"system": "SF-268 CNS"}, "SF-295 CNS": {"system": "SF-295 CNS"}, "SF-539 CNS": {"system": "SF-539 CNS"}, "SK-MEL-2 melanoma": {"system": "SK-MEL-2 melanoma"}, "SK-MEL-28 melanoma": {"system": "SK-MEL-28 melanoma"}, "SK-MEL-5 melanoma": {"system": "SK-MEL-5 melanoma"}, "SK-OV-3 ovarian": {"system": "SK-OV-3 ovarian"}, "SN12C renal": {"system": "SN12C renal"}, "SNB-19 CNS": {"system": "SNB-19 CNS"}, "SNB-75 CNS": {"system": "SNB-75 CNS"}, "SR leukemia": {"system": "SR leukemia"}, "SW-620 colon": {"system": "SW-620 colon"}, "T-47D breast": {"system": "T-47D breast"}, "TK-10 renal": {"system": "TK-10 renal"}, "U251 CNS": {"system": "U251 CNS"}, "UACC-257 melanoma": {"system": "UACC-257 melanoma"}, "UACC-62 melanoma": {"system": "UACC-62 melanoma"}, "UO-31 renal": {"system": "UO-31 renal"}}, "note": "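1) Cells in 96-well plates. 2) Compound, 48 h, 5 concentrations. 3) Linear interpolation between surrounding doses. 4) Unreached endpoint = highest concentration. TGI: concentration producing complete growth inhibition.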"}
{"compound": "NC(=S)NN=Cc1ccccc1OCc1cccc(COc2ccccc2C=NNC(N)=S)n1", "values": [{"measurement": "TGI", "setting": "786-0 renal", "value": "> 72", "unit": "µM"}, {"measurement": "TGI", "setting": "A498 renal", "value": 47.7, "unit": "µM"}, {"measurement": "TGI", "setting": "A549 NSCLC", "value": "> 100", "unit": "µM"}, {"measurement": "TGI", "setting": "ACHN renal", "value": "> 100", "unit": "µM"}, {"measurement": "TGI", "setting": "BT-549 breast", "value": 31, "unit": "µM"}, {"measurement": "TGI", "setting": "CAKI-1 renal", "value": "> 100", "unit": "µM"}, {"measurement": "TGI", "setting": "CCRF-CEM leukemia", "value": "> 100", "unit": "µM"}, {"measurement": "TGI", "setting": "COLO 205 colon", "value": "> 100", "unit": "µM"}, {"measurement": "TGI", "setting": "DU-145 prostate", "value": "> 45.6", "unit": "µM"}, {"measurement": "TGI", "setting": "EKVX NSCLC", "value": "> 50.6", "unit": "µM"}, {"measurement": "TGI", "setting": "HCC-2998 colon", "value": "> 100", "unit": "µM"}, {"measurement": "TGI", "setting": "HCT-116 colon", "value": "> 93.6", "unit": "µM"}, {"measurement": "TGI", "setting": "HCT-15 colon", "value": "> 100", "unit": "µM"}, {"measurement": "TGI", "setting": "HL-60(TB) leukemia", "value": "> 100", "unit": "µM"}, {"measurement": "TGI", "setting": "HOP-62 NSCLC", "value": 35.3, "unit": "µM"}, {"measurement": "TGI", "setting": "HOP-92 NSCLC", "value": 14.3, "unit": "µM"}, {"measurement": "TGI", "setting": "HS 578T breast", "value": "> 100", "unit": "µM"}, {"measurement": "TGI", "setting": "HT29 colon", "value": "> 100", "unit": "µM"}, {"measurement": "TGI", "setting": "IGROV1 ovarian", "value": 31.6, "unit": "µM"}, {"measurement": "TGI", "setting": "K-562 leukemia", "value": "> 100", "unit": "µM"}, {"measurement": "TGI", "setting": "KM12 colon", "value": "> 100", "unit": "µM"}, {"measurement": "TGI", "setting": "LOX IMVI melanoma", "value": "> 100", "unit": "µM"}, {"measurement": "TGI", "setting": "M14 melanoma", "value": "> 100", "unit": "µM"}, {"measurement": "TGI", "setting": "MALME-3M melanoma", "value": "> 100", "unit": "µM"}, {"measurement": "TGI", "setting": "MCF7 breast", "value": "> 100", "unit": "µM"}, {"measurement": "TGI", "setting": "MDA-MB-231 breast", "value": 22.3, "unit": "µM"}, {"measurement": "TGI", "setting": "MDA-MB-435", "value": "> 100", "unit": "µM"}, {"measurement": "TGI", "setting": "MDA-N", "value": "> 100", "unit": "µM"}, {"measurement": "TGI", "setting": "MOLT-4 leukemia", "value": "> 100", "unit": "µM"}, {"measurement": "TGI", "setting": "NCI-H226 lung", "value": "> 89.6", "unit": "µM"}, {"measurement": "TGI", "setting": "NCI-H23 lung", "value": "> 100", "unit": "µM"}, {"measurement": "TGI", "setting": "NCI-H460 lung", "value": "> 100", "unit": "µM"}, {"measurement": "TGI", "setting": "NCI-H522 lung", "value": "> 100", "unit": "µM"}, {"measurement": "TGI", "setting": "NCI/ADR-RES ovarian", "value": "> 100", "unit": "µM"}, {"measurement": "TGI", "setting": "OVCAR-3 ovarian", "value": "> 100", "unit": "µM"}, {"measurement": "TGI", "setting": "OVCAR-4 ovarian", "value": "> 100", "unit": "µM"}, {"measurement": "TGI", "setting": "OVCAR-5 ovarian", "value": "> 100", "unit": "µM"}, {"measurement": "TGI", "setting": "OVCAR-8 ovarian", "value": "> 100", "unit": "µM"}, {"measurement": "TGI", "setting": "PC-3 prostate", "value": "> 100", "unit": "µM"}, {"measurement": "TGI", "setting": "RPMI-8226 leukemia", "value": "> 100", "unit": "µM"}, {"measurement": "TGI", "setting": "RXF 393 renal", "value": 10.9, "unit": "µM"}, {"measurement": "TGI", "setting": "SF-268 CNS", "value": "> 100", "unit": "µM"}, {"measurement": "TGI", "setting": "SF-295 CNS", "value": 20, "unit": "µM"}, {"measurement": "TGI", "setting": "SF-539 CNS", "value": "> 34.6", "unit": "µM"}, {"measurement": "TGI", "setting": "SK-MEL-2 melanoma", "value": 33.7, "unit": "µM"}, {"measurement": "TGI", "setting": "SK-MEL-28 melanoma", "value": "> 100", "unit": "µM"}, {"measurement": "TGI", "setting": "SK-MEL-5 melanoma", "value": "> 100", "unit": "µM"}, {"measurement": "TGI", "setting": "SK-OV-3 ovarian", "value": 29.6, "unit": "µM"}, {"measurement": "TGI", "setting": "SN12C renal", "value": "> 100", "unit": "µM"}, {"measurement": "TGI", "setting": "SNB-19 CNS", "value": 46.3, "unit": "µM"}, {"measurement": "TGI", "setting": "SNB-75 CNS", "value": 5.62, "unit": "µM"}, {"measurement": "TGI", "setting": "SR leukemia", "value": "> 100", "unit": "µM"}, {"measurement": "TGI", "setting": "SW-620 colon", "value": "> 100", "unit": "µM"}, {"measurement": "TGI", "setting": "T-47D breast", "value": "> 100", "unit": "µM"}, {"measurement": "TGI", "setting": "TK-10 renal", "value": 32.3, "unit": "µM"}, {"measurement": "TGI", "setting": "U251 CNS", "value": 19.3, "unit": "µM"}, {"measurement": "TGI", "setting": "UACC-257 melanoma", "value": "> 100", "unit": "µM"}, {"measurement": "TGI", "setting": "UACC-62 melanoma", "value": "> 100", "unit": "µM"}, {"measurement": "TGI", "setting": "UO-31 renal", "value": "> 93.5", "unit": "µM"}]}
